{
  "source": "paper PMC11522085",
  "about": "“Studies on the mechanisms of action of MR33317” (Naunyn-Schmiedeberg's Archives of Pharmacology, 2024)",
  "target": "T1, 5-HT4-receptor (5-HT4B membrane preparations) (Homo sapiens, UniProt Q13639)",
  "T1 construct": "gene HTR4; 5-HT4B membrane preparations (HTS110M, Millipore), recombinant",
  "T1 sequence (Q13639 whole entry)": "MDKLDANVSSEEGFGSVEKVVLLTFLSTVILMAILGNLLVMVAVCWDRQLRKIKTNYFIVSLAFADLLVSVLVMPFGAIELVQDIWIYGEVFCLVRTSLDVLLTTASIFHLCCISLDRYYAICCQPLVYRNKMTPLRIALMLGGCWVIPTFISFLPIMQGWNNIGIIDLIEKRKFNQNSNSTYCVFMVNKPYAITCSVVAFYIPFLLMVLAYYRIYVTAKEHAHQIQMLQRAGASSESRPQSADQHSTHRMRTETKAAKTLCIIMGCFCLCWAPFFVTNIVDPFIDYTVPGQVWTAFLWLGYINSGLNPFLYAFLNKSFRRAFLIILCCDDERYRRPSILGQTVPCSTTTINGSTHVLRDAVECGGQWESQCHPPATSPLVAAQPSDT",
  "experiment": "radioligand-type competition binding on recombinant 5-HT4B membranes (filtration); partial agonist in cAMP assay",
  "text": "radioligand-type competition binding on recombinant 5-HT4B membranes (filtration); partial agonist in cAMP assay on 5-HT4-receptor (5-HT4B membrane preparations) | MR33317 bound with high affinity to recombinant 5-HT4-receptor.",
  "data": [
    {"smiles": "COc1cc(N)c(Cl)cc1C(=O)CCC1CCN(Cc2cccc(N)c2)CC1", "note": "[MR33317]", "values": [
      {"measurement": "Ki", "result": "42.5 ± 2.6", "unit": "nM"}
    ]}
  ]
}
